In publication PMC10138554, “Insights into the Microbicidal, Antibiofilm, Antioxidant and Toxicity Profile of New O-Aryl-Carbamoyl-Oxymino-Fluorene Derivatives” (International Journal of Molecular Sciences, 2023):
Converted amounts (≈) assume the structure as drawn.

Tested on: E. faecalis ATCC 29212
Test: MIC assay, serial two-fold microdilution in liquid medium
Type: cell-based
Conditions: Enterococcus faecalis, ATCC29212; E. faecalis ATCC 29212, planktonic, 37 °C, 24 h; read-out: minimum inhibitory concentration (MIC)
Description: (§1) The inhibitory activity of the obtained compounds has been assessed on five microbial strains, respectively: E. coli ATCC 25922, P. aeruginosa ATCC 27853, S. aureus ATCC 25923, E. faecalis ATCC 29212 and C. albicans ATCC 90029, in a planktonic and adherent growth state.
(§2) The MIC assay was performed by the serial two-fold microdilutions in a liquid medium, using a concentration range from 5 to 0.009 mg/mL and microbial suspensions of 0.5 MacFarland density. The wells containing only the microbial culture served as positive control and those containing the sterile culture medium as the negative control. The MIC values were read after incubation at 37 °C for 24 h.

Compared with `O=C(Nc1ccccc1)ON=C1c2ccccc2-c2ccccc21` [Compound 1a, 9-(phenylcarbamoyloxymino)fluoren], `Cc1cccc(NC(=O)ON=C2c3ccccc3-c3ccccc32)c1` [Compound 1b, 9-((3-methyl-phenyl)carbamoyloximino)fluoren] is 4-fold higher in MIC: 2500 µg/mL (≈ 7.95 mM) for the first, 10000 µg/mL (≈ 30.5 mM) for the second.

Tested on: C. albicans ATCC 90029
Test: as above
Type: cell-based
Conditions: Candida albicans, ATCC90029; C. albicans ATCC 90029, planktonic, 37 °C, 24 h; read-out: minimum inhibitory concentration (MIC)
Description: as §1, §2

Going from `O=C(Nc1ccccc1)ON=C1c2ccccc2-c2ccccc21` [Compound 1a, 9-(phenylcarbamoyloxymino)fluoren] to `Cc1cccc(NC(=O)ON=C2c3ccccc3-c3ccccc32)c1` [Compound 1b, 9-((3-methyl-phenyl)carbamoyloximino)fluoren], the MIC rises from 2500 µg/mL (≈ 7.95 mM) to 5000 µg/mL (≈ 15.2 mM) (2-fold).

Tested on: E. coli ATCC 25922
Test: MBC assay, plating on solid medium after MIC reading
Type: cell-based
Conditions: Escherichia coli, ATCC25922, read-out: minimum bactericidal concentration (MBC)
Description: as §1
(§3) The MB assay was performed after reading the MIC values.

Compared with `O=C(Nc1ccccc1)ON=C1c2ccccc2-c2ccccc21` [Compound 1a, 9-(phenylcarbamoyloxymino)fluoren], `Cc1cccc(NC(=O)ON=C2c3ccccc3-c3ccccc32)c1` [Compound 1b, 9-((3-methyl-phenyl)carbamoyloximino)fluoren] is 2-fold higher in MBC: 2500 µg/mL (≈ 7.95 mM) for the first, 5000 µg/mL (≈ 15.2 mM) for the second.

Tested on: E. faecalis ATCC 29212
Test: as above
Type: cell-based
Conditions: Enterococcus faecalis, ATCC29212, read-out: minimum bactericidal concentration (MBC)
Description: as §1, §3

First: O=C(Nc1ccccc1)ON=C1c2ccccc2-c2ccccc21 [Compound 1a, 9-(phenylcarbamoyloxymino)fluoren]
Second: Cc1cccc(NC(=O)ON=C2c3ccccc3-c3ccccc32)c1 [Compound 1b, 9-((3-methyl-phenyl)carbamoyloximino)fluoren]
The MBC of the first is 2-fold lower: 5000 µg/mL (≈ 15.9 mM) for the first, 10000 µg/mL (≈ 30.5 mM) for the second.

Tested on: S. aureus ATCC 25923
Test: as above
Type: cell-based
Conditions: Staphylococcus aureus, ATCC25923, read-out: minimum bactericidal concentration (MBC)
Description: as §1, §3

`O=C(Nc1ccccc1)ON=C1c2ccccc2-c2ccccc21` [Compound 1a, 9-(phenylcarbamoyloxymino)fluoren] and `Cc1cccc(NC(=O)ON=C2c3ccccc3-c3ccccc32)c1` [Compound 1b, 9-((3-methyl-phenyl)carbamoyloximino)fluoren] are the same in MBC: 5000 µg/mL (≈ 15.9 mM) for the first, 5000 µg/mL (≈ 15.2 mM) for the second.

Tested on: C. albicans ATCC 90029
Test: as above
Type: cell-based
Conditions: Candida albicans, ATCC90029, read-out: minimum bactericidal concentration (MBC)
Description: as §1, §3

Compared with `O=C(Nc1ccccc1)ON=C1c2ccccc2-c2ccccc21` [Compound 1a, 9-(phenylcarbamoyloxymino)fluoren], `Cc1cccc(NC(=O)ON=C2c3ccccc3-c3ccccc32)c1` [Compound 1b, 9-((3-methyl-phenyl)carbamoyloximino)fluoren] is 2-fold higher in MBC: 5000 µg/mL (≈ 15.9 mM) for the first, 10000 µg/mL (≈ 30.5 mM) for the second.

Tested on: P. aeruginosa ATCC 27853
Test: as above
Type: cell-based
Conditions: Pseudomonas aeruginosa, ATCC27853, read-out: minimum bactericidal concentration (MBC)
Description: as §1, §3

`O=C(Nc1ccccc1)ON=C1c2ccccc2-c2ccccc21` [Compound 1a, 9-(phenylcarbamoyloxymino)fluoren] and `Cc1cccc(NC(=O)ON=C2c3ccccc3-c3ccccc32)c1` [Compound 1b, 9-((3-methyl-phenyl)carbamoyloximino)fluoren] are the same in MBC: 2500 µg/mL (≈ 7.95 mM) for the first, 2500 µg/mL (≈ 7.61 mM) for the second.

Tested on: E. coli ATCC 25922
Test: Flow cytometry (FCM) membrane depolarization, DiBAC4(3)
Type: cell-based, Escherichia coli
Conditions: subinhibitory concentration tested 1.25 mg/mL, DiBAC4, 18–24 h
Description: The investigation of potential mechanisms of antimicrobial action by flow cytometry (FCM) was performed on microbial cultures obtained after 18–24 h of microbial cell incubation in the presence of subinhibitory concentrations of the analyzed compounds. Thus, microbial suspensions with a density of approximately 10^6 CFU/mL were prepared in sterile saline phosphate buffer from exponentially growing microbial cultures, obtained on a solid culture medium. Subinhibitory concentrations of the compounds were prepared in Muller–Hinton liquid culture medium and inoculated with an equal amount of microbial suspension and incubated for 18–24 h at 37 °C.
Microbial suspensions inoculated in a liquid medium were used as growth control. After incubation, the DiBAC4 fluorochrome solution [bis-(1,3-dibutylbarbituric acid) trimethinoxonol] Invitrogen/Life Technologies, Carlsbad, was added (0.5 μg/mL).
Fluorescence intensity (FI) was measured with an Accuri C6 plus flow cytometer in the FITC fluorescence channel. Growth control was used to locate the microbial cell population for fluorescence measurements. DiBAC4 dye was used to detect changes in the microbial membrane potential. […] A twofold increased fluorescence intensity (median fluorescence intensity = MFI) was considered to correspond to the depolarized microbial cells. For each subinhibitory concentration, a coloring index (CI) was calculated which represents the ratio of fluorescence intensity (FI) of treated versus untreated cells.

In the case of `O=C(Nc1ccccc1)ON=C1c2ccccc2-c2ccccc21` [Compound 1a, 9-(phenylcarbamoyloxymino)fluoren], the “staining index value (SI)” value is reported as 80.7.

Same assay, conditions: subinhibitory concentration tested 2.5 mg/mL, DiBAC4, 18–24 h

With `Cc1cccc(NC(=O)ON=C2c3ccccc3-c3ccccc32)c1` [Compound 1b, 9-((3-methyl-phenyl)carbamoyloximino)fluoren] the “staining index value (SI)” value was 10.2.

Tested on: C. albicans ATCC 90029
Test: Anti-biofilm activity assay, purple violet microtiter method
Type: cell-based, Candida albicans
Conditions: C. albicans ATCC 90029 biofilm
Description: as §1
(§4) The anti-biofilm activity assay was performed by the purple violet microtiter method, as previously described, allowing us to determine the minimal biofilm inhibitory concentration (MBEC). The same range of concentrations, as in the MIC assay, i.e., from 5 to 0.009 mg/mL has been tested.

Compared with `O=C(Nc1ccccc1)ON=C1c2ccccc2-c2ccccc21` [Compound 1a, 9-(phenylcarbamoyloxymino)fluoren], `Cc1cccc(NC(=O)ON=C2c3ccccc3-c3ccccc32)c1` [Compound 1b, 9-((3-methyl-phenyl)carbamoyloximino)fluoren] is 4-fold lower in “minimum biofilm inhibitory concentration (MBIC)” value: 0.312 mg/mL for the first, 0.078 mg/mL for the second.

Tested on: not listed separately
Test: Scavenger activity towards ABTS•+ free radical
Type: biochemical
Conditions: at 1000 μM, 6 min
Description: The method according to Re R. et al. was used to evaluate the scavenger capacity of the free radical.
The ABTS^•+ free radical resulted from the reaction between 2,2′-azinobis-(3-ethylbenzothiazoline-6-sulfonic acid) diammonium salt (7.4 mM) (solution 1) (Sigma-Aldrich, Germany) and potassium persulfate (2.6 mM) (solution 2) (Roth, Germany).
In order to obtain the ABTS^•+ free radical reagent, equal volumes of solutions 1 and 2 were mixed for 16 h. The obtained reagent was kept in the dark; 1 mL of the obtained solution was brought to a 50 mL volumetric flask and diluted with ethanol so that the absorbance at λ = 734 nm would be 0.700 ± 0.02.
The tested compounds were dissolved and diluted similar to the previous antioxidant assay. […]
The following formula was used for the calculation of the ABTS^•+ free radical scavenger activity (%) Inhibition %=Abst=0min−Abst=6min/Abst=0min×100 where: Abst = ABTS^•+ solution absorbance in the absence (0 min)/presence (6 min) of the tested compounds.
(§5) For both the above-mentioned methods, the antioxidant activity was expressed as IC50 values (μM) which represent the concentration of each compound for which the scavenging activity of free radicals is 50%. […]

For `Cc1cccc(NC(=O)ON=C2c3ccccc3-c3ccccc32)c1` [Compound 1b, 9-((3-methyl-phenyl)carbamoyloximino)fluoren], the “ABTS•+ free radical scavenger activity” value was 26.60%.

Same assay, conditions: linear regression over 25–1000 μM, 6 min, mean ± SD of three; read-out: IC50 by means of ABTS•+ assay

`O=C(Nc1ccccc1)ON=C1c2ccccc2-c2ccccc21` [Compound 1a, 9-(phenylcarbamoyloxymino)fluoren] and `Cc1cccc(NC(=O)ON=C2c3ccccc3-c3ccccc32)c1` [Compound 1b, 9-((3-methyl-phenyl)carbamoyloximino)fluoren] are within 1.5-fold of each other in IC50: 9.8854 ± 0.000251 mM for the first, 9.3794 ± 0.00102 mM for the second.

Tested on: P. aeruginosa ATCC 27853
Test: Anti-biofilm activity assay, purple violet microtiter method
Type: cell-based, Pseudomonas aeruginosa
Conditions: P. aeruginosa ATCC 27853 biofilm
Description: as §1, §4

Compared with `O=C(Nc1ccccc1)ON=C1c2ccccc2-c2ccccc21` [Compound 1a, 9-(phenylcarbamoyloxymino)fluoren], `Cc1cccc(NC(=O)ON=C2c3ccccc3-c3ccccc32)c1` [Compound 1b, 9-((3-methyl-phenyl)carbamoyloximino)fluoren] is 17-fold higher in “minimum biofilm inhibitory concentration (MBIC)” value: 0.009 mg/mL for the first, 0.156 mg/mL for the second.

Tested on: not listed separately
Test: Scavenger activity towards DPPH free radical
Type: biochemical
Conditions: at 25 μM, 30 min
Description: The DPPH (Sigma-Aldrich, Darmstadt, Germany) solution of 0.1 mM concentration was obtained by dissolving 0.0039 g of free radical in 100 mL ethanol, in a volumetric flask. For all determinations, the DPPH solution was freshly prepared and kept in the dark. Ethanol has been chosen since tested compounds were dissolved in ethanol: DMSO = 99:1 (v/v) mixture.
The analyzed compounds were dissolved in 25 mL of ethanol: DMSO = 99:1 (v/v) mixture in a final concentration of 1000 μM (stock solution), from which several concentrations of 25 μM, 50 μM, 75 μM, 100 μM, 250 μM and 500 μM were obtained by successive dilutions.
The determination of the antioxidant activity was based on the Ohnishi M et al. method, quoted by Germano M.P. et al..
[…] The samples were kept at rest in the dark for 30 min [79, 81]. Ethanol was used as a blank in order to measure the absorbance at 515 nm (Jasco V-530 spectrophotometer, Jasco, Japan).
The following formula was used to determine DPPH free radical scavenger activity (%): Inhibition %=Acontrol−Asample/Acontrol×100 where, A = absorbance of the 0.1 mM DPPH solution in the absence (control)/presence (sample) of tested compounds after 30 min.
as §5

For `O=C(Nc1ccccc1)ON=C1c2ccccc2-c2ccccc21` [Compound 1a, 9-(phenylcarbamoyloxymino)fluoren], the “DPPH free radical scavenger capacity” value was 12.66%.

Same assay, conditions: at 1000 μM, 30 min

First: O=C(Nc1ccccc1)ON=C1c2ccccc2-c2ccccc21 [Compound 1a, 9-(phenylcarbamoyloxymino)fluoren]
Second: Cc1cccc(NC(=O)ON=C2c3ccccc3-c3ccccc32)c1 [Compound 1b, 9-((3-methyl-phenyl)carbamoyloximino)fluoren]
The “DPPH free radical scavenger capacity” value of the first is higher: 19.81% for the first, 16.29% for the second.

Same assay, conditions: linear regression over 25–1000 μM, 30 min, mean ± SD of three; read-out: IC50 by means of DPPH assay

First: O=C(Nc1ccccc1)ON=C1c2ccccc2-c2ccccc21 [Compound 1a, 9-(phenylcarbamoyloxymino)fluoren]
Second: Cc1cccc(NC(=O)ON=C2c3ccccc3-c3ccccc32)c1 [Compound 1b, 9-((3-methyl-phenyl)carbamoyloximino)fluoren]
The IC50 of the first is 2.1-fold lower: 5.7352 ± 8.28e-05 mM for the first, 12.263 ± 5.74e-05 mM for the second.
